Source: PubChem BioAssay AID1259348 (Broad Institute, 2017)
Active and inactive are the calls of the source.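 The calls were made as follows: active = any compound with an IC50 of 100 nM or lower; inactive = the rest.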

Biological target: Insulin-degrading enzyme (Homo sapiens) (UniProt P14735)
Experiment: inhibitors of IDE decapeptide proteolysis, dose response, counter-screen for IDE exo-site inhibitor project, biochemical, kinetic mode (AID 1259348);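 as to z-score: purified IDE bound to fluorescein-labelled 6b probe FL-6b at the exo-site; probe displacement lowers polarization so hits show a drop in FP signal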
Settings: purified human IDE, fluorogenic decapeptide proteolysis; for z-score: measured here: primary FP probe displacement screen, stronger effect = lower value

Insulin-degrading enzyme (Homo sapiens), sequence (P14735 42-1019 limits assumed): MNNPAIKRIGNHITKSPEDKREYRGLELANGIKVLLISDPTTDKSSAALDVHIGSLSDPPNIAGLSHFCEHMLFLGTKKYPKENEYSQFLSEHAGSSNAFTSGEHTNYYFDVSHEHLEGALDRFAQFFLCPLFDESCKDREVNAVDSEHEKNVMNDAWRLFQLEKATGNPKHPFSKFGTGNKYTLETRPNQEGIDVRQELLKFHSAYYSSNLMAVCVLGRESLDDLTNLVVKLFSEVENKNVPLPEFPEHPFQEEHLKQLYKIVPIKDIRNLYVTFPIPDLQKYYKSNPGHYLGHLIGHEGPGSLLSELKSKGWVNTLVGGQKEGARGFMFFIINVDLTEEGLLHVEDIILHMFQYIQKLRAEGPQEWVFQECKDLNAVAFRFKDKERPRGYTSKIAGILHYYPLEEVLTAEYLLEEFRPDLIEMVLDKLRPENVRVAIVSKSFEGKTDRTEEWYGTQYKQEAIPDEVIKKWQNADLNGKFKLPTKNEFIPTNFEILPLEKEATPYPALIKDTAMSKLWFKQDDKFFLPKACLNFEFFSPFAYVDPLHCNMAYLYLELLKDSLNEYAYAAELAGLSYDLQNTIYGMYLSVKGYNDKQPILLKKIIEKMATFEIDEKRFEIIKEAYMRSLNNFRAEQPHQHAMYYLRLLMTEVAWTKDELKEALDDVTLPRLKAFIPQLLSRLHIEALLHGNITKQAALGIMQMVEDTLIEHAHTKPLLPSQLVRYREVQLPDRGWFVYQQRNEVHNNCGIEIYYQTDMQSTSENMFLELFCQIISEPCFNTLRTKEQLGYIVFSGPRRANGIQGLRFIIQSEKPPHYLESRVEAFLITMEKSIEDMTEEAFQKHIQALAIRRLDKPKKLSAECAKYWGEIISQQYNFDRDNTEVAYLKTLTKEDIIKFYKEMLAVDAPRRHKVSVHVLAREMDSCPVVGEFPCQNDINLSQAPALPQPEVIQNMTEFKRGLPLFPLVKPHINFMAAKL

| SMILES | IC50 | z-score |
| --- | --- | --- |
| Cc1ccccc1-c1ccc([C@H]2[C@H](CO)N3C(=O)CN(C(=O)Cc4ccccn4)C[C@@H]23)cc1 | 4.4 µM | -13.9 |
| Cc1ccccc1-c1ccc([C@H]2[C@@H](CO)N3CCCCN(C(=O)Cc4ccccn4)C[C@@H]23)cc1 | 50 µM | -5.7 |
| O=C(NC1CCCC1)N1CCCCN2[C@H](C1)[C@H](c1ccc(/C=C/c3ccccc3)cc1)[C@@H]2CO | 11.5 µM | -13.2 |
| OC[C@H]1[C@@H](c2ccc(C#Cc3ccccc3F)cc2)[C@@H]2CN(Cc3cncnc3)CCCCN12 | 5.2 µM | -15.1 |
| CN1C(=O)c2cc(NC(=O)Nc3ccccc3Cl)ccc2OC[C@H]2O[C@H](CC(=O)NCCCN3CCOCC3)CC[C@@H]21 | 1.7 µM | -14.2 |
| Cc1cccc(-c2ccc([C@H]3[C@H](CO)N4C(=O)CN(C(=O)NC5CCCCC5)C[C@@H]34)cc2)c1 | 3.2 µM | -16.3 |
| Cc1ccccc1-c1ccc([C@H]2[C@@H](CO)N3CCCCN(C(=O)NC4CCCC4)C[C@H]23)cc1 | 0.88 µM | -17.3 |
| COc1ccccc1NC(=O)N1CCCCN2[C@H](CO)[C@@H](c3ccc(-c4cccc(C)c4)cc3)[C@@H]2C1 | 7.6 µM | -2.84 |
| Cc1ccccc1-c1ccc([C@H]2[C@H](CO)N3C(=O)CN(C(=O)c4cccnc4)C[C@@H]23)cc1 | 6.1 µM | -12.4 |
| COCC(=O)N1CCCCN2[C@H](CO)[C@@H](c3ccc(-c4cccc(C)c4)cc3)[C@@H]2C1 | 16 µM | -5.29 |
| O=C(CC1CC1)N1CC(=O)N2[C@H](C1)[C@H](c1ccc(C#Cc3ccccc3)cc1)[C@@H]2CO | 7.1 µM | -15.9 |
| Cc1ccccc1-c1ccc([C@H]2[C@H]3CN(C(=O)NC4CCCC4)CCCCN3[C@H]2CO)cc1 | 5.6 µM | -5.69 |
| Cc1ccccc1-c1ccc([C@H]2[C@@H](CO)N3CCCCN(S(=O)(=O)c4cn(C)cn4)C[C@@H]23)cc1 | > 100 µM (inactive) | -3.44 |
| Cc1ccccc1-c1ccc([C@H]2[C@H](CO)N3C(=O)CN(C(=O)Nc4cccc(F)c4)C[C@@H]23)cc1 | 4 µM | -3.03 |
| Cc1cccc(-c2ccc([C@@H]3[C@@H](CO)N4C(=O)CN(C(=O)NC5CCCCC5)C[C@@H]34)cc2)c1 | 0.67 µM | -16.6 |
| Cc1cccc(-c2ccc([C@@H]3[C@H]4CN(C(=O)c5cccnc5)CC(=O)N4[C@H]3CO)cc2)c1 | 4.2 µM | -17.7 |
| CC(=O)N1CCCCN2[C@H](CO)[C@@H](c3ccc(-c4cccc(C)c4)cc3)[C@@H]2C1 | 16.5 µM | -3.48 |

| SMILES | IC50 | z-score |
| --- | --- | --- |
| Cc1cccc(-c2ccc([C@@H]3[C@@H](CO)N4CCCCN(C(=O)c5cccnc5)C[C@@H]34)cc2)c1 | > 100 µM (inactive) | -3.25 |
| Cc1ccccc1-c1ccc([C@@H]2[C@@H](CO)N3CCCCN(S(=O)(=O)c4ccc(F)cc4)C[C@@H]23)cc1 | 0.34 µM | -17.5 |
| COc1ccccc1C#Cc1ccc([C@H]2[C@H](CO)N3CCCCN(C(=O)C4CCC4)C[C@@H]23)cc1 | 2.7 µM | -12.3 |
| Cc1ccccc1-c1ccc([C@@H]2[C@H]3CN(C(=O)Cc4ccccn4)CC(=O)N3[C@H]2CO)cc1 | 2 µM | -17.7 |
| Cc1cccc(-c2ccc([C@H]3[C@@H](CO)N4CCCCN(Cc5cccnc5)C[C@H]34)cc2)c1 | 10.7 µM | -6.79 |
| COc1cccc(C#Cc2ccc([C@@H]3[C@H](CO)N4C(=O)CN(C(C)=O)C[C@@H]34)cc2)c1 | 3.7 µM | -15.3 |
| CCCNC(=O)N1CC(=O)N2[C@H](CO)[C@@H](c3ccc(-c4cccc(C)c4)cc3)[C@@H]2C1 | 0.77 µM | -22.4 |
| Cc1cccc(-c2ccc([C@@H]3[C@@H](CO)N4C(=O)CN(C(=O)c5cnccn5)C[C@@H]34)cc2)c1 | 5 µM | -17.5 |
| Cc1ccccc1-c1ccc([C@H]2[C@@H](CO)N3CCCCN(C(=O)NC4CCCC4)C[C@@H]23)cc1 | 0.4 µM | -19.3 |
| Cc1ccccc1-c1ccc([C@@H]2[C@@H](CO)N3CCCCN(C(=O)NC4CCCC4)C[C@H]23)cc1 | 3.6 µM | -14.5 |
| Cc1ccccc1-c1ccc([C@@H]2[C@H](CO)N3C(=O)CN(C(=O)NC4CCCC4)C[C@@H]23)cc1 | 3.6 µM | -8.13 |
| COc1cccc(-c2ccc([C@@H]3[C@@H](CO)N4CCCCN(CC5CC5)C[C@@H]34)cc2)c1 | 22.5 µM | -2.88 |
| COc1ccccc1-c1ccc([C@H]2[C@@H](CO)N3CCCCN(C(=O)c4ccncc4)C[C@H]23)cc1 | 4.9 µM | -17.2 |
| Cc1ccccc1-c1ccc([C@H]2[C@@H](CO)N3C(=O)CN(C(=O)c4cccnc4)C[C@H]23)cc1 | 2 µM | -17.2 |
| Cc1cccc(-c2ccc([C@@H]3[C@@H](CO)N4CCCCN(C(=O)c5ccc6c(c5)OCO6)C[C@@H]34)cc2)c1 | > 100 µM (inactive) | – |
| Cc1ccccc1-c1ccc(C2[C@@H]3CN(Cc4cocn4)C[C@H]2N3)cc1 (stereo not given in full) | 6.7 µM | -3.01 |
